Data published in ChEMBL document CHEMBL1154222, “Ceratodictyols, 1-glyceryl ethers from the red alga-sponge association Ceratodictyon spongiosum/Haliclona cymaeformis” (J Nat Prod, 2009).

Tested on: HeLa
Assay: Cytotoxicity against human HeLa cells
Assay type: functional, cell-based

Compound `CCCCCCCCCCC(=O)/C=C/CCCOC[C@@H](O)CO` [CERATODICTYOL A] has an IC50 of 67 µM.

Compound `CCCCCCCCC/C=C/C(=O)CCCCOC[C@@H](O)CO` [CERATODICTYOL B] has an IC50 of 67 µM.
